Results as given in ChEMBL document CHEMBL5724914, “Linking interpersonal differences in gut microbiota composition and drug biotransformation activity” (2024).

Legend:
[1] = (§1) The drug is tested on Z-021 corresponding to metagenome with ENA study accession number: PRJEB37062 and ENA sample accession number: ERS12561820 for biotransformation under anaerobic condition. The drug concentrations were measured over 9 timepoints collected between 0 and 24 hours of incubation by liquid-chromatography-coupled mass spectrometry (LC–MS); conditions: 2 µM
[2] = human gut metagenome, 24 h, 2 µM
[3] = human gut metagenome, 24 h, 2 µM; remark: listed apart in the source
[4] = (§2) The drug is tested on Z-013 corresponding to rabbit gut metagenome with ENA study accession number: PRJEB37062 and ENA sample accession number: ERS12561813 for biotransformation under anaerobic condition. The drug concentrations were measured over 9 timepoints collected between 0 and 24 hours of incubation by liquid-chromatography-coupled mass spectrometry (LC–MS); conditions: 2 µM
[5] = as §2, with “Z-006” for “Z-013”, “mouse” for “rabbit”, “ERS12561806” for “ERS12561813”; conditions: 2 µM
[6] = human gut metagenome, 24 h, 2 µM; remark: listed apart in the source
[7] = as §2, with “WLS-098” for “Z-013”, “human” for “rabbit”, “ERS12561754” for “ERS12561813”; conditions: 2 µM
[8] = human gut metagenome, 24 h, 2 µM; remark: listed apart in the source
[9] = as §2, with “WLS-077” for “Z-013”, “human” for “rabbit”, “ERS12561750” for “ERS12561813”; conditions: 2 µM
[10] = human gut metagenome, 24 h, 2 µM; remark: listed apart in the source
[11] = as §1, with “Z-008” for “Z-021”, “ERS12561808” for “ERS12561820”; conditions: 2 µM
[12] = as §2, with “Z-017” for “Z-013”, “mouse” for “rabbit”, “ERS12561816” for “ERS12561813”; conditions: 2 µM
[13] = human gut metagenome, 24 h, 2 µM; remark: listed apart in the source
[14] = as §2, with “Z-018” for “Z-013”, “pig” for “rabbit”, “ERS12561817” for “ERS12561813”; conditions: 2 µM
[15] = human gut metagenome, 24 h, 2 µM; remark: listed apart in the source
[16] = as §2, with “WLS-007” for “Z-013”, “human” for “rabbit”, “ERS12561742” for “ERS12561813”; conditions: 2 µM
[17] = human gut metagenome, 24 h, 2 µM; remark: listed apart in the source
[18] = human gut metagenome, 24 h, 2 µM; remark: listed apart in the source
[19] = as §1, with “Z-012” for “Z-021”, “ERS12561812” for “ERS12561820”; conditions: 2 µM
[20] = as §2, with “Z-025” for “Z-013”, “ERS12561824” for “ERS12561813”; conditions: 2 µM
Note: call rule not given here.

| SMILES | Bacterial Biotransformation [1] | Bacterial Biotransformation [2] | Bacterial Biotransformation [3] | Bacterial Biotransformation [4] | Bacterial Biotransformation [5] | Bacterial Biotransformation [6] | Bacterial Biotransformation [7] | Bacterial Biotransformation [8] | Bacterial Biotransformation [9] | Bacterial Biotransformation [10] | Bacterial Biotransformation [11] | Bacterial Biotransformation [12] | Bacterial Biotransformation [13] | Bacterial Biotransformation [14] | Bacterial Biotransformation [15] | Bacterial Biotransformation [16] | Bacterial Biotransformation [17] | Bacterial Biotransformation [18] | Bacterial Biotransformation [19] | Bacterial Biotransformation [20] |
| --- | --- | --- | --- | --- | --- | --- | --- | --- | --- | --- | --- | --- | --- | --- | --- | --- | --- | --- | --- | --- |
| CCN(CC)CCOC(=O)C(Cc1cccc2ccccc12)CC1CCCO1.O=C(O)C(=O)O (stereo not given) [NAFRONYL OXALATE] | Compound metabolized | Compound metabolized | Compound metabolized | Compound NOT metabolized | Compound metabolized | Compound NOT metabolized | Compound metabolized | Compound NOT metabolized | Compound metabolized | Compound metabolized | Compound NOT metabolized | Compound NOT metabolized | Compound NOT metabolized | Compound metabolized | Compound NOT metabolized | Compound metabolized | Compound metabolized | Compound metabolized | Compound metabolized | Compound NOT metabolized |
| CS(=O)(=O)O.OC(CCN1CCCCC1)(c1ccccc1)c1ccccc1 [PRIDINOL METHANESULFONATE] | Compound NOT metabolized | Compound NOT metabolized | Compound NOT metabolized | Compound NOT metabolized | Compound NOT metabolized | Compound metabolized | Compound metabolized | Compound metabolized | Compound NOT metabolized | Compound metabolized | Compound NOT metabolized | Compound NOT metabolized | Compound NOT metabolized | Compound NOT metabolized | Compound NOT metabolized | Compound NOT metabolized | Compound NOT metabolized | Compound metabolized | Compound NOT metabolized | Compound NOT metabolized |
| CCCCc1nc(Cl)c(CO)n1Cc1ccc(-c2ccccc2-c2nn[nH]n2)cc1 [LOSARTAN] | Compound NOT metabolized | Compound metabolized | Compound metabolized | Compound NOT metabolized | Compound NOT metabolized | Compound metabolized | Compound metabolized | Compound metabolized | Compound NOT metabolized | Compound metabolized | Compound NOT metabolized | Compound NOT metabolized | Compound metabolized | Compound NOT metabolized | Compound metabolized | Compound metabolized | Compound NOT metabolized | Compound metabolized | Compound NOT metabolized | Compound NOT metabolized |
| CCc1nn(CCCN2CCN(c3cccc(Cl)c3)CC2)c(=O)n1CCOc1ccccc1 [NEFAZODONE] | Compound NOT metabolized | Compound metabolized | Compound NOT metabolized | Compound NOT metabolized | Compound NOT metabolized | Compound metabolized | Compound metabolized | Compound NOT metabolized | Compound NOT metabolized | Compound metabolized | Compound NOT metabolized | Compound NOT metabolized | Compound NOT metabolized | Compound NOT metabolized | Compound NOT metabolized | Compound metabolized | Compound metabolized | Compound metabolized | Compound NOT metabolized | Compound NOT metabolized |
| Cc1ccccc1N1C(=O)c2cc(S(N)(=O)=O)c(Cl)cc2NC1C (stereo not given) [METOLAZONE] | Compound NOT metabolized | Compound metabolized | Compound metabolized | Compound NOT metabolized | Compound NOT metabolized | Compound NOT metabolized | Compound metabolized | Compound metabolized | Compound NOT metabolized | Compound NOT metabolized | Compound NOT metabolized | Compound NOT metabolized | Compound NOT metabolized | Compound NOT metabolized | Compound NOT metabolized | Compound NOT metabolized | Compound NOT metabolized | Compound metabolized | Compound NOT metabolized | Compound metabolized |
| CN1CCc2c(c3ccccc3n2Cc2ccccc2)C1.CN1CCc2c(c3ccccc3n2Cc2ccccc2)C1.O=S(=O)(O)c1cccc2c(S(=O)(=O)O)cccc12 | Compound NOT metabolized | Compound NOT metabolized | Compound metabolized | Compound NOT metabolized | Compound NOT metabolized | Compound NOT metabolized | Compound NOT metabolized | Compound NOT metabolized | Compound NOT metabolized | Compound NOT metabolized | Compound NOT metabolized | Compound NOT metabolized | Compound NOT metabolized | Compound NOT metabolized | Compound metabolized | Compound NOT metabolized | Compound NOT metabolized | Compound NOT metabolized | Compound NOT metabolized | Compound metabolized |
| C[C@@H](CO)NC(=O)[C@@H]1C=C2c3cccc4[nH]cc(c34)C[C@H]2N(C)C1.O=C(O)/C=C\C(=O)O [ERGONOVINE MALEATE] | Compound NOT metabolized | Compound metabolized | Compound metabolized | Compound NOT metabolized | Compound NOT metabolized | Compound metabolized | Compound NOT metabolized | Compound NOT metabolized | Compound metabolized | Compound metabolized | Compound NOT metabolized | Compound NOT metabolized | Compound metabolized | Compound metabolized | Compound NOT metabolized | Compound NOT metabolized | Compound NOT metabolized | Compound metabolized | Compound NOT metabolized | Compound NOT metabolized |
| CN(C)C(=O)C(CCN1CCC(O)(c2ccc(Cl)cc2)CC1)(c1ccccc1)c1ccccc1 [LOPERAMIDE] | Compound NOT metabolized | Compound metabolized | Compound metabolized | Compound metabolized | Compound metabolized | Compound metabolized | Compound metabolized | Compound metabolized | Compound metabolized | Compound metabolized | Compound NOT metabolized | Compound NOT metabolized | Compound metabolized | Compound metabolized | Compound metabolized | Compound metabolized | Compound metabolized | Compound metabolized | Compound metabolized | Compound metabolized |
